Test system: RAW264.7
Experiment: Inhibition of LPS-induced nitric oxide production in mouse RAW264.7 cells assessed as nitrite formation
Format: functional, cell-based

Row | SMILES | IC50
1 | C=C1C(=O)[C@]23C[C@H]1CC[C@H]2[C@@]12CO[C@@]3(O)[C@@H](O)[C@@H]1[C@](C)(COC(C)=O)CC[C@@H]2O | 5.9 µM
2 | C=C1C(=O)[C@]23C[C@H]1C[C@@H](OC(C)=O)[C@H]2[C@@]12CO[C@@]3(O)[C@@H](O)[C@@H]1[C@](C)(COC(C)=O)CC[C@@H]2O | 10.2 µM
3 | C=C1C(=O)[C@]23C[C@H]1CC[C@H]2[C@]1(COC3=O)[C@@H](OC(C)=O)CC[C@@](C)(COC(C)=O)[C@H]1CO | 8.2 µM
4 | C=C1C(=O)[C@]23C[C@H]1CC[C@H]2[C@]1(COC3=O)[C@@H](OC(C)=O)CC[C@@](C)(CO)[C@H]1COC(C)=O | 8.7 µM
5 | C=C1C(=O)[C@]23C[C@H]1CC[C@H]2[C@]1(COC3=O)[C@@H](OC(C)=O)CC[C@@](C)(COC(C)=O)[C@H]1C=O | 20.3 µM
6 | C=C1C(=O)[C@]23C[C@H]1CC[C@H]2[C@]12CCC[C@@](C)(COC(C)=O)[C@H]1[C@H](O)[C@]3(O)OC2 [LONGIKAURIN C] | 1 µM

Second part, the compound after the results:

Row | IC50 | SMILES
7 | 8.5 µM | C=C1C(=O)[C@]23[C@@H](O)[C@H]1CC[C@H]2[C@@]12COC3(O)C[C@@H]1C(C)(C)CC[C@@H]2O
8 | 3.3 µM | C=C1C(=O)[C@]23C[C@H]1CC[C@H]2[C@@]12CO[C@]3(O)[C@@H](O)[C@@H]1[C@](C)(COC(C)=O)CC[C@@H]2OC(C)=O [EFFUSANIN D]
9 | 3.3 µM | C=C1C(=O)[C@@]23[C@H](O)C[C@@H]4C(C)(C)CC[C@H](O)[C@@]4(C)[C@@H]2C[C@H](OC(C)=O)[C@@H]1[C@H]3O [EXCISANIN B]
10 | 6.3 µM | C=C1C(=O)[C@]23[C@H](O)[C@H]1CC[C@H]2[C@@]12CO[C@@]3(O)[C@@H](O)[C@@H]1[C@](C)(COC(C)=O)CC[C@@H]2OC(C)=O [ISODOJAPONIN A]
11 | 1.6 µM | C=C1C(=O)[C@]23[C@H](O)[C@H]1CC[C@H]2[C@@]12CO[C@@]3(O)[C@@H](O)[C@@H]1C(C)(C)CC[C@@H]2OC(C)=O [LASIOKAURIN]
12 | 0.9 µM | C=C1C(=O)[C@]23[C@H](O)[C@H]1CC[C@H]2[C@]12CCC[C@@](C)(COC(C)=O)[C@H]1[C@H](O)[C@]3(O)OC2 [LONGIKAURIN B]
13 | 2 µM | C=C1C(=O)[C@]23C[C@H]1C[C@@H](O)[C@H]2[C@]12CCC[C@@](C)(COC(C)=O)[C@H]1[C@H](O)[C@]3(O)OC2 [LONGIKAURIN D]
14 | 24.2 µM | C=C1C(=O)[C@]23C[C@H]1C[C@@H](O)[C@H]2[C@]1(COC3=O)[C@@H](OC(C)=O)CC[C@@](C)(COC(C)=O)[C@H]1C=O [LOXOTHYRIN A]
15 | 5.4 µM | C=C1C(=O)[C@@]23[C@H](O)C[C@@H]4C(C)(C)[C@@H](OC(C)=O)CC[C@@]4(C)[C@@H]2CC(=O)[C@@H]1[C@H]3O [PSEURATA C]
